Test systems include A498; A549; COLO 205; DU-145; EKVX; HCT-116; HOP-92; HT-29; LOX IMVI; NCI-H522; OVCAR-5; OVCAR-8; SF-539; SR; SW-620; U-251; UO-31; HOP-62; NCI-H226; SK-OV-3.
What all share (assay): inhibition of tumour cell growth, NCI panel, 48 h

11 compounds from ChEMBL document CHEMBL1201862, “PubChem BioAssay data set” (2004) can be followed below.

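Exposure lasted 48 hours, with cells grown in 96-well plates and compounds tested at five concentrations. Here, GI50 denotes the concentration required for 50% inhibition of growth.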 Calls of active or inactive are those of the source. Rule as the data show it: active = GI50 up to about 1.1 µM and inactive = higher.

As to `COC(=O)c1ccc(S)c(S(=O)(=O)Nc2nc(N)n[nH]2)c1`, the GI50 in the experiment on A498, with A549, in the experiment with COLO 205, in the experiment with DU-145, in the experiment on EKVX and in the experiment with HCT-116 was > 100 µM (inactive) each time. Moreover, the GI50 in the experiment with HOP-92, in the experiment on HT-29, with LOX IMVI, with NCI-H522, in the experiment on OVCAR-5 and with OVCAR-8 was > 100 µM (inactive) in each case. Moreover, the GI50 with SF-539, in the experiment on SR, with SW-620, in the experiment on U-251 and in the experiment with UO-31 was > 100 µM (inactive) each time.

For `Cn1cc(C(=O)c2nccc3c2cnc2ccccc23)ccc1=O`, the GI50 with A498 was > 100 µM (inactive); in the experiment with A549, 56.1 µM (inactive); in the experiment on COLO 205, 69.5 µM (inactive); with DU-145 it was > 100 µM (inactive); in the experiment on EKVX it was > 100 µM (inactive); in the experiment with HCT-116, 31.9 µM (inactive). Also, the GI50 is 25.9 µM (inactive) in the experiment with HOP-62; > 100 µM (inactive) in the experiment on HOP-92; > 100 µM (inactive) in the experiment on HT-29; > 100 µM (inactive) with LOX IMVI; > 100 µM (inactive) with NCI-H226; > 100 µM (inactive) in the experiment on OVCAR-5. In addition, the GI50 is > 100 µM (inactive) in the experiment with OVCAR-8; > 100 µM (inactive) in the experiment with SF-539; > 100 µM (inactive) with SK-OV-3; 8.17 µM (inactive) in the experiment with SR; > 100 µM (inactive) with SW-620; > 100 µM (inactive) in the experiment with U-251. For the same compound, the GI50 with UO-31 was 32.1 µM (inactive).

In the case of `Cc1ccc(C(=O)N/N=C(\N=N\c2cccc([N+](=O)[O-])c2)c2ccc(N(CCC#N)CCC#N)cc2C)cc1`, the GI50 was 25.8 µM (inactive) in the experiment with A498; 31.9 µM (inactive) in the experiment with A549; 4.73 µM (inactive) in the experiment on COLO 205; 29 µM (inactive) in the experiment on DU-145; 25.5 µM (inactive) with EKVX; 28.4 µM (inactive) in the experiment on HCT-116. For the same compound, the GI50 is 25.4 µM (inactive) with HOP-62; 45.9 µM (inactive) in the experiment with HOP-92; 29.2 µM (inactive) with HT-29; 24.5 µM (inactive) in the experiment on LOX IMVI; 20.4 µM (inactive) in the experiment with NCI-H522; 59.4 µM (inactive) with OVCAR-5. Also, the GI50 in the experiment with OVCAR-8 was 23.2 µM (inactive); in the experiment with SF-539, 4.58 µM (inactive); in the experiment with SK-OV-3 it was 36.8 µM (inactive); in the experiment on SR, 21.6 µM (inactive); in the experiment on SW-620, 38.7 µM (inactive); in the experiment with U-251 it was 36.1 µM (inactive). The GI50 in the experiment on UO-31 was 39.5 µM (inactive).

Turning to `CC(=O)NC(C)(C)C1CC=C(C)CC1` (stereo unspecified), the GI50 in the experiment on A498, with A549, in the experiment with COLO 205, in the experiment with DU-145, in the experiment with EKVX and in the experiment on HCT-116 was > 100 µM (inactive) each time. For the same compound, the GI50 in the experiment with HOP-62, in the experiment on HT-29, in the experiment on LOX IMVI, with NCI-H226, with OVCAR-5 and in the experiment with OVCAR-8 was > 100 µM (inactive) in each case. Besides, the GI50 in the experiment on SF-539, in the experiment on SK-OV-3, in the experiment on SR, in the experiment on SW-620, in the experiment on U-251 and with UO-31 was > 100 µM (inactive) in each case.

Turning to `CCSc1ncnc2c(C3OC(CO)C(O)C3O)nsc12` (stereo unspecified), the GI50 with A498, in the experiment with A549, in the experiment with COLO 205, with DU-145, with EKVX and in the experiment with HCT-116 was > 100 µM (inactive) each time. Further, the GI50 in the experiment with HOP-62, in the experiment on HOP-92, with HT-29, in the experiment on LOX IMVI, in the experiment on NCI-H226 and in the experiment on OVCAR-5 was > 100 µM (inactive) throughout. Further, the GI50 in the experiment on OVCAR-8, in the experiment with SF-539, with SK-OV-3, in the experiment with SR, with SW-620 and with U-251 was > 100 µM (inactive) in each case.

On to `Cn1nc(C(=O)N2CC(CCl)c3c2cc(N)c2ccccc32)cc1NC(=O)Nc1cc(C(=O)N2CC(CCl)c3c2cc(N)c2ccccc32)nn1C` (stereo unspecified), for which the GI50 in the experiment on A498 is 8.69 µM (inactive); in the experiment on A549, 0.499 µM (active); in the experiment with COLO 205, 0.163 µM (active); in the experiment on DU-145, 0.0116 µM (active); with EKVX it was 29 µM (inactive); in the experiment with HCT-116, 0.0818 µM (active). The GI50 in the experiment on HOP-62 was 0.682 µM (active); with HT-29, 0.0215 µM (active); in the experiment with LOX IMVI, < 0.01 µM (active); with OVCAR-5, 0.301 µM (active); with OVCAR-8, 0.249 µM (active); in the experiment with SF-539 it was 0.016 µM (active). Besides, the GI50 is 0.3 µM (active) in the experiment with SK-OV-3; < 0.01 µM (active) with SR; 0.0271 µM (active) in the experiment on SW-620; 0.0212 µM (active) in the experiment on U-251; 14.1 µM (inactive) in the experiment with UO-31.

With `Cc1cc(NC2=NCCO2)c2c(c1C)CCCC2`, the GI50 in the experiment with A498 was 13.6 µM (inactive); in the experiment on A549 it was 29.6 µM (inactive); in the experiment on COLO 205, 17.1 µM (inactive); with DU-145, 27.5 µM (inactive); in the experiment with EKVX, 23.6 µM (inactive); in the experiment on HCT-116, 15.2 µM (inactive). Besides, the GI50 in the experiment with HOP-62 is 13.3 µM (inactive); in the experiment on HOP-92, 0.906 µM (active); in the experiment on HT-29, 13.9 µM (inactive); with NCI-H226, 1.27 µM (inactive); with OVCAR-5, 17.1 µM (inactive); in the experiment with OVCAR-8 it was 25.4 µM (inactive). In addition, the GI50 with SF-539 is 0.0536 µM (active); with SK-OV-3 it was 20.4 µM (inactive); with SR, 18.5 µM (inactive); with SW-620 it was 27.1 µM (inactive); with U-251 it was 18.5 µM (inactive); in the experiment on UO-31, 1.91 µM (inactive).

Consider `[N-]=[N+]=NCc1nc(N)c2c3c(sc2n1)CCCC3`, for which the GI50 was 10.9 µM (inactive) in the experiment with A498; 3.27 µM (inactive) in the experiment on A549; 3.78 µM (inactive) in the experiment on COLO 205; 3.13 µM (inactive) in the experiment with DU-145; 2.1 µM (inactive) in the experiment with EKVX; 2.52 µM (inactive) with HCT-116. The GI50 in the experiment on HOP-62 was 3.72 µM (inactive); with HOP-92 it was 0.402 µM (active); in the experiment with HT-29, 1.55 µM (inactive); in the experiment with LOX IMVI, 0.272 µM (active); in the experiment on NCI-H226, 2.14 µM (inactive); in the experiment with OVCAR-5, 3.64 µM (inactive). Besides, the GI50 in the experiment on OVCAR-8 was 1.51 µM (inactive); in the experiment on SF-539 it was 1.6 µM (inactive); with SK-OV-3, 11.6 µM (inactive); in the experiment on SR, 4.99 µM (inactive); in the experiment on SW-620 it was 6.85 µM (inactive); in the experiment on U-251 it was 2.47 µM (inactive). Moreover, the GI50 in the experiment on UO-31 is 0.0532 µM (active).

For `COc1cc(/C=C2\CCC(C)C3=C2N=c2s/c(=C/c4ccc(Cl)cc4)c(=O)n2C3c2cc(OC)c(OC)c(OC)c2)cc(OC)c1OC` (stereo unspecified), the GI50 in the experiment with A498, in the experiment with A549, in the experiment with DU-145, with EKVX, with HCT-116 and in the experiment with HOP-62 was > 100 µM (inactive) in each case. Moreover, the GI50 in the experiment on HOP-92, with HT-29, in the experiment with LOX IMVI, with OVCAR-5, in the experiment on OVCAR-8 and with SK-OV-3 was > 100 µM (inactive) each time. The GI50 with SR, in the experiment on SW-620, in the experiment on U-251 and in the experiment with UO-31 was > 100 µM (inactive) throughout.

Take `O=C(O)Cc1cccc2c(=O)c3cccc([N+](=O)[O-])c3[nH]c12`: the GI50 in the experiment on A498 is > 100 µM (inactive); in the experiment with A549, > 100 µM (inactive); in the experiment with COLO 205 it was 20.7 µM (inactive); with DU-145, 58.5 µM (inactive); in the experiment with HCT-116, > 100 µM (inactive); with HOP-62, 31.4 µM (inactive). In addition, the GI50 in the experiment on HOP-92 was > 100 µM (inactive); with HT-29, > 100 µM (inactive); with LOX IMVI, 48.2 µM (inactive); in the experiment on NCI-H522, 63.2 µM (inactive); with OVCAR-5 it was 36.5 µM (inactive); in the experiment on OVCAR-8, > 100 µM (inactive). Also, the GI50 with SF-539 is 29.7 µM (inactive); in the experiment with SK-OV-3 it was > 100 µM (inactive); with SR, 21.4 µM (inactive); in the experiment with SW-620 it was > 100 µM (inactive); in the experiment with U-251 it was 38.9 µM (inactive); with UO-31, > 100 µM (inactive).

With `CCCCN=C(OC1C=CCCC1)SC` (stereo unspecified), the GI50 with A498 is 51.8 µM (inactive); with A549, > 100 µM (inactive); with COLO 205, > 100 µM (inactive); with DU-145, > 100 µM (inactive); in the experiment with EKVX, > 100 µM (inactive); in the experiment on HCT-116, > 100 µM (inactive). Moreover, the GI50 was > 100 µM (inactive) in the experiment on HOP-62; 43.4 µM (inactive) with HOP-92; > 100 µM (inactive) in the experiment on HT-29; > 100 µM (inactive) in the experiment on NCI-H226; > 100 µM (inactive) in the experiment with OVCAR-5; > 100 µM (inactive) in the experiment on OVCAR-8. Besides, the GI50 with SK-OV-3, in the experiment with SR, with SW-620, in the experiment with U-251 and with UO-31 was > 100 µM (inactive) throughout.
